Reference: PubChem BioAssay (NCI)
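Method: 48-hour compound exposure of cells in 96-well plates, five concentrations, linear interpolation of endpoints. GI50 = concentration required for 50% inhibition of growth. At the TGI there is no net growth.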

Experiments:
Test in all cases: NCI anticancer screen, dose series, 48 h
786-0 renal = system: 786-0 renal
A498 renal = system: A498 renal
A549 NSCLC = system: A549 NSCLC
ACHN renal = system: ACHN renal
BT-549 breast = system: BT-549 breast
CCRF-CEM leukemia = system: CCRF-CEM leukemia
COLO 205 colon = system: COLO 205 colon
DU-145 prostate = system: DU-145 prostate
EKVX NSCLC = system: EKVX NSCLC
HCC-2998 colon = system: HCC-2998 colon
HCT-15 colon = system: HCT-15 colon
HL-60(TB) leukemia = system: HL-60(TB) leukemia
HOP-62 NSCLC = system: HOP-62 NSCLC
HOP-92 NSCLC = system: HOP-92 NSCLC
HS 578T breast = system: HS 578T breast
HT29 colon = system: HT29 colon
IGROV1 ovarian = system: IGROV1 ovarian
K-562 leukemia = system: K-562 leukemia
KM12 colon = system: KM12 colon
LOX IMVI melanoma = system: LOX IMVI melanoma
M14 melanoma = system: M14 melanoma
MALME-3M melanoma = system: MALME-3M melanoma
MDA-MB-231 breast = system: MDA-MB-231 breast
MDA-MB-435 = system: MDA-MB-435
MOLT-4 leukemia = system: MOLT-4 leukemia
NCI-H226 lung = system: NCI-H226 lung
NCI-H23 lung = system: NCI-H23 lung
NCI-H460 lung = system: NCI-H460 lung
NCI-H522 lung = system: NCI-H522 lung
NCI/ADR-RES ovarian = system: NCI/ADR-RES ovarian
OVCAR-3 ovarian = system: OVCAR-3 ovarian
OVCAR-4 ovarian = system: OVCAR-4 ovarian
OVCAR-5 ovarian = system: OVCAR-5 ovarian
OVCAR-8 ovarian = system: OVCAR-8 ovarian
PC-3 prostate = system: PC-3 prostate
RPMI-8226 leukemia = system: RPMI-8226 leukemia
RXF 393 renal = system: RXF 393 renal
SF-268 CNS = system: SF-268 CNS
SF-295 CNS = system: SF-295 CNS
SF-539 CNS = system: SF-539 CNS
SK-MEL-2 melanoma = system: SK-MEL-2 melanoma
SK-MEL-28 melanoma = system: SK-MEL-28 melanoma
SK-MEL-5 melanoma = system: SK-MEL-5 melanoma
SK-OV-3 ovarian = system: SK-OV-3 ovarian
SN12C renal = system: SN12C renal
SNB-19 CNS = system: SNB-19 CNS
SNB-75 CNS = system: SNB-75 CNS
SR leukemia = system: SR leukemia
SW-620 colon = system: SW-620 colon
T-47D breast = system: T-47D breast
TK-10 renal = system: TK-10 renal
U251 CNS = system: U251 CNS
UACC-257 melanoma = system: UACC-257 melanoma
UACC-62 melanoma = system: UACC-62 melanoma
UO-31 renal = system: UO-31 renal

For `O=C(C[n+]1cccc2cc(Cl)ccc21)c1ccc2c(c1)CCCC2`, the GI50 (786-0 renal) was 2010 nM, the TGI (786-0 renal) was 5250 nM and the GI50 (A498 renal) was 3560 nM. It also gave a TGI (A498 renal) of 13300 nM, a GI50 (A549 NSCLC) of 3700 nM and a TGI (A549 NSCLC) of 13500 nM. The GI50 (ACHN renal) was 4910 nM, the TGI (ACHN renal) was 18500 nM and the GI50 (BT-549 breast) was 1110 nM. It also gave a TGI (BT-549 breast) of 2970 nM, a GI50 (CCRF-CEM leukemia) of 1590 nM and a TGI (CCRF-CEM leukemia) of 8740 nM. The GI50 (COLO 205 colon) was 1500 nM, the TGI (COLO 205 colon) was 3010 nM and the GI50 (DU-145 prostate) was 1460 nM. The TGI (DU-145 prostate) was 3330 nM, the GI50 (EKVX NSCLC) was 2460 nM and the TGI (EKVX NSCLC) was 11300 nM. For the same compound, the GI50 (HCC-2998 colon) was 1600 nM, the TGI (HCC-2998 colon) was 3280 nM and the GI50 (HCT-15 colon) was 11800 nM. For the same compound, the TGI (HCT-15 colon) was 31700 nM, the GI50 (HL-60(TB) leukemia) was 882 nM and the TGI (HL-60(TB) leukemia) was 3950 nM. It also gave a GI50 (HOP-62 NSCLC) of 1650 nM, a TGI (HOP-62 NSCLC) of 3850 nM and a GI50 (HOP-92 NSCLC) of 1580 nM. It also gave a TGI (HOP-92 NSCLC) of 3220 nM, a GI50 (HS 578T breast) of 2030 nM and a TGI (HS 578T breast) of 5430 nM. The GI50 (HT29 colon) was 1660 nM, the TGI (HT29 colon) was 3440 nM and the GI50 (IGROV1 ovarian) was 1520 nM. It also gave a TGI (IGROV1 ovarian) of 4080 nM, a GI50 (K-562 leukemia) of 1320 nM and a TGI (K-562 leukemia) of 10300 nM. For the same compound, the GI50 (KM12 colon) was 1460 nM, the TGI (KM12 colon) was 3360 nM and the GI50 (LOX IMVI melanoma) was 831 nM. It also gave a TGI (LOX IMVI melanoma) of 2240 nM, a GI50 (M14 melanoma) of 1480 nM and a TGI (M14 melanoma) of 3200 nM. It also gave a GI50 (MALME-3M melanoma) of 1200 nM, a TGI (MALME-3M melanoma) of 2630 nM and a GI50 (MDA-MB-231 breast) of 1500 nM. It also gave a TGI (MDA-MB-231 breast) of 3250 nM, a GI50 (MDA-MB-435) of 1610 nM and a TGI (MDA-MB-435) of 3380 nM. It also gave a GI50 (MOLT-4 leukemia) of 1410 nM, a TGI (MOLT-4 leukemia) of 4500 nM and a GI50 (NCI-H226 lung) of 1480 nM. For the same compound, the TGI (NCI-H226 lung) was 3480 nM, the GI50 (NCI-H23 lung) was 1140 nM and the TGI (NCI-H23 lung) was 4440 nM. It also gave a GI50 (NCI-H460 lung) of 1860 nM, a TGI (NCI-H460 lung) of 3680 nM and a GI50 (NCI-H522 lung) of 1510 nM. The TGI (NCI-H522 lung) was 4330 nM, the GI50 (NCI/ADR-RES ovarian) was 19900 nM and the TGI (NCI/ADR-RES ovarian) was 67300 nM. For the same compound, the GI50 (OVCAR-3 ovarian) was 875 nM, the TGI (OVCAR-3 ovarian) was 2260 nM and the GI50 (OVCAR-4 ovarian) was 982 nM. The TGI (OVCAR-4 ovarian) was 2990 nM, the GI50 (OVCAR-5 ovarian) was 1840 nM and the TGI (OVCAR-5 ovarian) was 4540 nM. For the same compound, the GI50 (OVCAR-8 ovarian) was 2980 nM, the TGI (OVCAR-8 ovarian) was 11200 nM and the GI50 (PC-3 prostate) was 933 nM. The TGI (PC-3 prostate) was 3610 nM, the GI50 (RPMI-8226 leukemia) was 910 nM and the TGI (RPMI-8226 leukemia) was 4090 nM. The GI50 (RXF 393 renal) was 1690 nM, the TGI (RXF 393 renal) was 3810 nM and the GI50 (SF-268 CNS) was 1440 nM. For the same compound, the TGI (SF-268 CNS) was 3290 nM, the GI50 (SF-295 CNS) was 1770 nM and the TGI (SF-295 CNS) was 4220 nM. For the same compound, the GI50 (SF-539 CNS) was 1400 nM, the TGI (SF-539 CNS) was 2850 nM and the GI50 (SK-MEL-2 melanoma) was 1680 nM. It also gave a TGI (SK-MEL-2 melanoma) of 3410 nM, a GI50 (SK-MEL-28 melanoma) of 1620 nM and a TGI (SK-MEL-28 melanoma) of 3190 nM. For the same compound, the GI50 (SK-MEL-5 melanoma) was 1260 nM, the TGI (SK-MEL-5 melanoma) was 2550 nM and the GI50 (SK-OV-3 ovarian) was 1720 nM. For the same compound, the TGI (SK-OV-3 ovarian) was 6940 nM, the GI50 (SN12C renal) was 1270 nM and the TGI (SN12C renal) was 3040 nM. It also gave a GI50 (SNB-19 CNS) of 1120 nM, a TGI (SNB-19 CNS) of 2650 nM and a GI50 (SNB-75 CNS) of 1350 nM. The TGI (SNB-75 CNS) was 3200 nM, the GI50 (SR leukemia) was 758 nM and the TGI (SR leukemia) was 6180 nM. It also gave a GI50 (SW-620 colon) of 2030 nM, a TGI (SW-620 colon) of 4970 nM and a GI50 (T-47D breast) of 1090 nM. For the same compound, the TGI (T-47D breast) was 2710 nM, the GI50 (TK-10 renal) was 2210 nM and the TGI (TK-10 renal) was 4650 nM. The GI50 (U251 CNS) was 595 nM, the TGI (U251 CNS) was 1860 nM and the GI50 (UACC-257 melanoma) was 1500 nM. It also gave a TGI (UACC-257 melanoma) of 3580 nM, a GI50 (UACC-62 melanoma) of 1540 nM and a TGI (UACC-62 melanoma) of 3490 nM. For the same compound, the GI50 (UO-31 renal) was 5710 nM and the TGI (UO-31 renal) was 20400 nM.
